In patent US20110257131A1, “PHENYLALKYL-IMIDAZOLE-BISPHOSPHONATE COMPOUNDS” (NOVARTIS AG, priority 2008, published 2011):

Target: T1, Human farnesyl pyrophosphate synthase (FPPS, Swissprot ID: P14324) (Homo sapiens, UniProt P14324)
T1 construct: made in house
T1 sequence (P14324 67-419 limits assumed): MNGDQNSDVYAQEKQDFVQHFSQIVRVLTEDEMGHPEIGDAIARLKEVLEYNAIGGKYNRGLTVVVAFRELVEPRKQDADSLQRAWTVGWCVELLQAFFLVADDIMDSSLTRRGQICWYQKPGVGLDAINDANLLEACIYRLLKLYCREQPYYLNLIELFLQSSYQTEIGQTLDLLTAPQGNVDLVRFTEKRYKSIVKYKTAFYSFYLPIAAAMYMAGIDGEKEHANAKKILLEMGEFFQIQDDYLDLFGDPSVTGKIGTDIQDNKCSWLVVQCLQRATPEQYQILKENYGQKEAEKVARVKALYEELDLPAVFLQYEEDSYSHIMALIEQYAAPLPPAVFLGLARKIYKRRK
Test: FPPS assay (label-free LC/MS/MS quantification of farnesyl pyrophosphate)
Type: biochemical
Settings: cell-free in vitro FPPS assay; 5 min pre-incubation with enzyme, GPP/IPP 5 μM each, 30 min reaction
Procedure: For example, in a cell-free in vitro assay the superiority of compounds of the formula I over compounds already known can be shown. Briefly, the reaction proceeds in the presence of enzyme and an inhibitor of the formula I, and the reaction product (farneysyl pyrophosphate) is quantified by LC/MS/MS.
In detail, the inhibitor and enzyme are pre-incubated before adding the substrates
The assay is a label-free assay for farnesyl pyrophosphate synthase (FPPS) based on LC/MS/MS. This method quantifies in-vitro untagged farnesyl pyrophosphate (FPP) and is suitable for high throughput screening (HTS) to find inhibitors of FPPS and for the determinations of IC50 values of candidate compounds. The analysis time is 2.0 minutes with a total cycle time of 2.5 minutes. The analysis can be formatted for 384-well plates resulting in an analysis time of 16 hours per plate.
Pentanol, methanol, and isopropyl alcohol are HPLC grade and obtained from Fisher Scientific, DMIPA is from Sigma-Aldrich. Water is from an in-house Milli-Q system. The assay buffer (20 mM HEPES, 5 mM MgCl2 and 1 mM CaCl2) is prepared by dilution from […] stock solutions obtained from Sigma-Aldrich. Standards of geranyl pyrophosphate (GPP), […], and farnesyl S-thiolopyrophosphate (FSPP) are from Echelon Biosciences (Salt Lake City, Utah). Human farnesyl pyrophosphate synthase (FPPS, Swissprot ID: P14324) (13.8 mg/mL) is prepared as described by Rondeau at al (ChemMedChem 2006, 1, 267-273.
LC/MS/MS analyses are performed on a Micromass Quattro Micro tandem quadrupole mass analyser (Waters Corp, Milford, Mass., USA) interfaced to an Agilent 1100 binary LC pump Agilent Technologies, Inc., Santa Clara, Calif., USA). Injection is performed with a CTC Analytics autosampler (Leap Technologies Inc., Carrboro, N.C., USA) using an injection loop size of 2.5 μL. Chromatography is performed on a Waters 2.1×20 mm Xterra MS C18 5 μm guard column (P/N186000652) (Waters Corp., Milford, Mass., USA) contained in a guard column holder (P/N 186000262) using 0.1% DMIPA/methanol as solvent A and 0.1% DMIPA/water as solvent B (DMIPA is dimethylisopropylamine). The gradient is 5% A from 0.00 to 0.30 min, 50% A at 0.31 min., 80% A at 1.00 min., and 5% A from 1.01 to 2.00 min. The flow rate is 0.3 mL/min, and the flow is diverted to waste from 0.00 to 0.50 min and again from 1.20 to 2.00 min.
The Multiple Reaction Monitoring (MRM) transitions monitored are 381->79—for FPP and 397->159—for FSPP at a collision energy of 22 eV and a collision cell pressure of 2.1×10-3 mbar of Ar. The dwell time per transition is 400 msec with a span of 0.4 Da. The inter-channel delay and interscan delay are both 0.02 sec. Other mass spectrometric operating parameters are: capillary, 2.0 kV; cone, 35 V; extractor, 2.0 V, source temp., 100 ° C.; desolvation gas temp., 250° C.; desolvation gas flow, 650 L/hr; cone gas flow, 25 L/hr; multiplier, 650 V.
The total cycle time per sample is 2.5 minutes. Since the analysis is formatted for 384-well plates, a plate is analyzed in 16 hours. The chromatograms are processed using Quanlynx software, which divides the area of individual FPP peaks by the area of the FSPP peaks (internal standard). The resulting values are reported as the relative response for the corresponding sample well.
Into each well of a 384-well plate, 5 μL of compound in 20% DMSO/water is placed. […]

**Q.** Which IC50 does the source give for `O=P(O)(O)C(O)(Cn1cncc1CCCc1ccccc1)P(=O)(O)O` [Example 1, {1-Hydroxy-2-[5-(3-phenyl-propyl)-imidazol-1-yl]-1-phosphono-ethyl}-phosphonic acid] here?
**A.** 1.9 nM

**Q.** Which IC50 does the source give for `O=P(O)(O)C(O)(Cn1cnc(Cc2ccccc2)c1)P(=O)(O)O` [Example 2, [2-(4-Benzyl-imidazol-1-yl)-1-hydroxy-1-phosphono-ethyl]-phosphonic acid] here?
**A.** 1.4 nM

**Q.** With `O=P(O)(O)C(O)(Cn1cnc(CCc2ccccc2)c1)P(=O)(O)O` [Example 3, [1-Hydroxy-2-(4-phenethyl-imidazol-1-yl)-1-phosphono-ethyl]-phosphonic acid] as the compound, how does the IC50 read?
**A.** 1.9 nM

**Q.** For `O=P(O)(O)C(O)(Cn1cncc1CCc1ccccc1)P(=O)(O)O` [Example 4, [1-Hydroxy-2-(5-phenethyl-imidazol-1-yl)-1-phosphono-ethyl]-phosphonic acid], which IC50 is on record?
**A.** 6.7 nM

**Q.** How did the IC50 turn out when `Cc1ccc(CCCc2cncn2CC(O)(P(=O)(O)O)P(=O)(O)O)cc1` [Example 5, {1-Hydroxy-1-phosphono-2-[5-(3-p-tolyl-propyl)-imidazol-1-yl]-ethyl}-phosphonic acid] was run?
**A.** 3.5 nM
